Assay results from PubChem BioAssay AID2823 (Broad Institute, 2010).
The source made the active and inactive calls. No rule for the calls is given here.

target: RanGTP-importin-beta complex (human Ran / KPNB1); experiment: disruptors of RanGTP/KPNB1 binding – biochemical, FRET, CFP/YFP, cell-free homogeneous, confirmation (AID 2823); details: CFP-Ran/YFP-importin-beta FRET ratio

SMILES	IC50
C/C(=N\NC(=S)NCc1ccccc1)c1cccc(Br)c1	> 50 µM (inactive)
CCOc1ccc2nc(SCC(=O)NCc3ccc4c(c3)OCO4)[nH]c2c1	> 50 µM (inactive)
CC(=O)N1CCC(N(CCN2CCOCC2)C(=O)Nc2ccc(Cl)c(Cl)c2)CC1	> 50 µM (inactive)
N#C/C(=C\c1ccc(N2CCOCC2)o1)C(=O)NC1CCCCC1	2.76 µM
CCOC(=O)c1oc2c(CN3CCN(CCO)CC3)c(O)c(CC)cc2c(=O)c1-c1nc2ccccc2s1	18.4 µM
COc1ccc2cc(CCN3C(=O)c4ccccc4C3=O)c(=O)[nH]c2c1	> 50 µM (inactive)
CN=C(Nc1cc(C)nn1CCC#N)c1ccccc1	> 50 µM (inactive)
COc1ccc(N=Cc2cc(Cc3ccccc3Cl)cc([N+](=O)[O-])c2O)cc1OC	> 50 µM (inactive)
COc1ccc(CCn2c(=N)c(C(=O)NCC3CCCO3)cc3c(=O)n4cccc(C)c4nc32)cc1 (configuration not stated)	11.5 µM
COc1cccc(C(=O)c2cc3ccc(O)cc3oc2=O)c1	26.9 µM
Cc1ccc(S(=O)(=O)NCCN(CCNS(=O)(=O)c2ccc(C)cc2)S(C)(=O)=O)cc1	> 50 µM (inactive)
CCOC(=O)C1=C(C)NC2=C(C(=O)C(C(=O)OCC)C(c3ccccc3OC)C2)C1c1ccccn1 (configuration not stated)	26.2 µM
COc1ccc(C(=O)O)cc1S(=O)(=O)N(C)C	> 50 µM (inactive)
COC(=O)C1=CN(Cc2ccc(OC)cc2)C=C(C(=O)OC)C1c1ccc(O)c(OC)c1	> 50 µM (inactive)
COC(=O)c1c(NC(NC(=O)c2ccccc2)(C(F)(F)F)C(F)(F)F)sc2c1CCN(C)C2	35.8 µM
Cc1c(C)c2cc(Cl)c(O)c(CN(C)C)c2oc1=O	25.2 µM
O=C(NNc1c2ccccc2nc2ccccc12)c1ccc(O)cc1O	> 50 µM (inactive)
O=c1nc(-c2ccccc2Cl)c2cc(F)ccc2[nH]1	> 50 µM (inactive)
O=C(O)Cn1cc(/C=C2/SC(=O)N(CC(=O)N3CCCCCC3)C2=O)c2ccccc21	44.1 µM
Cc1cc(C)c[n+](-c2nc3ccccc3nc2[N-]S(=O)(=O)c2ccc(Br)s2)c1	3.68 µM
Nc1ccc(C2(c3ccc(N)cc3)CN3CCC2CC3)cc1	> 50 µM (inactive)
c1ccc2sc(NC3=NCN(CCN4CCOCC4)CN3)nc2c1	> 50 µM (inactive)
O=C(Cc1ccccc1)NNc1c2ccccc2nc2ccccc12	> 50 µM (inactive)
Fc1ccccc1N1CC(c2ccccc2)C(c2cccs2)=N1 (configuration not stated)	20.8 µM
COc1ccc(-c2c(C)c3ccc(O)cc3oc2=O)cc1	36.3 µM
Cc1cc2c(c(=O)n1Cc1cccnc1)C(Cc1ccccc1)C(C#N)=C(N)O2 (configuration not stated)	> 50 µM (inactive)

SMILES	IC50
Cc1c(/C=N\NC(=O)C2COc3ccccc3O2)c2ccccc2n1C (configuration not stated)	> 50 µM (inactive)
NS(=O)(=O)c1cccc(NC(=O)CCSc2ccc(Cl)cc2)c1	> 50 µM (inactive)
CCN(CC)c1nc(-c2ccccc2)cc(C(F)(F)F)c1C#N	7.28 µM
Cc1ccccc1-n1nc2c(c1NC(=O)c1cc3ccccc3oc1=O)CS(=O)(=O)C2	> 50 µM (inactive)
CCCN1CC(O)=C(C#N)C1=O	> 50 µM (inactive)
CC(C)OC(=O)c1nnn(-c2nonc2N)c1CN1CCCCCC1	> 50 µM (inactive)
NC(=O)c1ccccc1NC(=O)/C=C/c1ccc(Cl)cc1	> 50 µM (inactive)
Cc1c(C=O)cnn1CCC(=O)O	> 50 µM (inactive)
CCCn1cnc2cc(NCc3ccc(Br)cc3)ccc21	> 50 µM (inactive)
CN(C)/C=C/C(=O)/C=C/c1ccc(Cl)cc1	> 50 µM (inactive)
CCc1ccc(CNc2ccc3c(c2)ncn3C(C)(C)C)cc1	> 50 µM (inactive)
Nc1nc(CSc2nnnn2-c2ccc(Cl)cc2)nc(N2CCOCC2)n1	> 50 µM (inactive)
Cc1ccc(OCC(=O)NCCNC(=O)c2ccc(C)nc2)cc1	> 50 µM (inactive)
O=C(O)/C=C/C(=O)Nc1ccc2c(c1)NC(=O)CO2	> 50 µM (inactive)
CCOc1ccccc1NC1=CC(=O)CC(c2ccccc2)C1 (configuration not stated)	> 50 µM (inactive)
CC(C)n1c(O)c(C2c3cc(Cl)ccc3Oc3[nH]c(=O)n(C(C)C)c(=O)c32)c(=O)[nH]c1=O (configuration not stated)	> 50 µM (inactive)
O=c1cc(N2CCc3ccccc3C2)[nH]c(=O)n1C1CCCCC1	> 50 µM (inactive)
COC(=O)C1=CN(CC2CCCO2)C=C(C(=O)OC)C1c1cccc(O)c1 (configuration not stated)	14.1 µM
NNc1nc2sc3c(c2c(=O)n1C1CCCCC1)CCN(Cc1ccccc1)C3	2.69 µM
Cc1ccc(N2NC(=O)/C(=C\c3cc4c(cc3[N+](=O)[O-])OCO4)C2=O)cc1C	> 50 µM (inactive)
N#Cc1c(N)n(CCOC(=O)c2ccc(Cl)cc2)c2nc3ccccc3nc12	3.68 µM
Nc1c(C(=O)Nc2ccccc2)c2nc3ccccc3nc2n1CCCN1CCOCC1	41.7 µM
CCc1ccc(-c2nc(CSCC(=O)N3CCN(c4ccccn4)CC3)c(C)o2)cc1	> 50 µM (inactive)
Cc1ccc(S(=O)(=O)N(C)Cc2ccc(C(=O)N/N=C3\CC(=O)CC(C)(C)C3)cc2)cc1	> 50 µM (inactive)
C=C(C)Cn1c(SCC(=O)O)nnc1-c1ccc(OC)cc1	> 50 µM (inactive)
Cc1cc(S(=O)(=O)N2CCN(c3c(C)cccc3C)CC2)ccc1F	> 50 µM (inactive)

SMILES	IC50
O=[N+]([O-])c1cc(CN2CCCC2)ccc1Sc1ccc(Cl)cc1	> 50 µM (inactive)
Cc1ccc2cc(C#N)c(N3CCCN(S(=O)(=O)c4ccc(F)cc4)CC3)nc2c1	31.6 µM
COc1cc(C2C3CN(C)CC=C3C(C#N)=C(N)C2(C#N)C#N)ccc1OC(C)C (configuration not stated)	12.1 µM
OCCNc1c2ccccc2nc2ccccc12	3.94 µM
Cc1nc2ccccc2n1CC(=O)N1CC(=O)Nc2ccccc21	> 50 µM (inactive)
CN(C)CCCN(C(=O)c1ccc(Br)s1)c1nc2cc3c(cc2s1)OCCO3	> 50 µM (inactive)
NC(=O)c1ccc(F)cc1	> 50 µM (inactive)
CCCC(=O)NNc1c2ccccc2nc2ccccc12	> 50 µM (inactive)
CCOC(=O)CNC(=O)C1CCCN(c2ncccn2)C1 (configuration not stated)	> 50 µM (inactive)
Oc1ccc(Br)cc1/C=N/n1c(-c2ccccc2)n[nH]c1=S	> 50 µM (inactive)
COC(=O)c1sccc1NC(=O)c1csc(C)c1	> 50 µM (inactive)
Cn1c(=O)oc2cc(S(=O)(=O)NCCC(=O)N3CC=C(c4ccccc4)CC3)ccc21	> 50 µM (inactive)
COc1ccccc1S(=O)Cc1ccc(C(=O)O)o1 (configuration not stated)	> 50 µM (inactive)
CC(=O)N1CCc2c(sc(NC(=O)CS(=O)(=O)c3ccc(F)cc3)c2C(N)=O)C1	> 50 µM (inactive)
Cc1cccc(Nc2nnc(SC/C(O)=C(\C#N)c3nc4ccccc4[nH]3)s2)c1C	> 50 µM (inactive)
NS(=O)(=O)c1ccc(CCNC(=O)C(=O)c2c[nH]c3ccccc23)cc1	> 50 µM (inactive)
CC(NC(=O)/C(C#N)=C/c1ccc(N2CCOCC2)cc1)c1ccccc1 (configuration not stated)	20.2 µM
COc1ccc(NS(=O)(=O)c2cc(NC(=O)c3cccs3)ccc2N2CCOCC2)cc1	> 50 µM (inactive)
CCc1ccc(C2C3=C(CC(C)(C)CC3=O)Nc3c2c(=O)[nH]c2nc(C)nn32)cc1 (configuration not stated)	7.01 µM
N#C/C(=C\N1CCN(Cc2ccc3c(c2)OCO3)CC1)c1nc2ccccc2s1	> 50 µM (inactive)
CCOCCCn1c(=N)c(C(=O)NCc2ccc3c(c2)OCO3)cc2c(=O)n3cccc(C)c3nc21	14.9 µM
COc1ccc2c(C)c(C(=O)N3CC[C@@H](N4CCC(O)CC4)[C@H](O)C3)oc2c1	> 50 µM (inactive)
Cc1ccc(NC(=O)Cn2nc(C(F)(F)F)c3c2CCC3)cc1	> 50 µM (inactive)
CCOC(=O)C/C(=N\Nc1ncnc2ccccc12)c1ccccc1	> 50 µM (inactive)
O=S(=O)(Nc1nc2ccccc2nc1-[n+]1cccc(N=C([O-])c2ccccc2Cl)c1)c1ccccc1	6.27 µM
Nc1nc(N2CCOCC2)nc(N(c2ccccc2)c2ccccc2)n1	> 50 µM (inactive)

SMILES	IC50
COc1ccccc1/C=C/c1nc(C#N)c(N(C)C)o1	17.4 µM
O=[N+]([O-])c1ccc(Nc2c3ccccc3nc3ccccc23)cc1	> 50 µM (inactive)
CC1CC1c1ccc(/C=C(\C#N)C(=O)Nc2ccc(Cl)cc2)o1 (configuration not stated)	> 50 µM (inactive)
COc1cc2c(cc1OC)CN(Cc1cccs1)CC2	> 50 µM (inactive)
COc1ccc(NC(=O)CN2C(=O)CC(C)S(=O)(=O)c3ccccc32)cc1 (configuration not stated)	> 50 µM (inactive)
Cc1ccc(NC(=O)C2CCN(S(=O)(=O)c3ccc(Cl)c(C(F)(F)F)c3)CC2)nc1	> 50 µM (inactive)
Cc1cnc(=O)[nH]c1SCC(=O)c1ccc(F)cc1	> 50 µM (inactive)
CC(=O)Cc1nsc(NC(=O)c2ccc(-c3cccc(C(F)(F)F)c3)o2)n1	> 50 µM (inactive)
COc1ccc2cc(C(=O)N/N=C/c3sc4ccccc4c3O)ccc2c1	> 50 µM (inactive)
CC(C)CCNC(=O)C(c1ccco1)N(Cc1ccc(F)cc1)C(=O)c1snc(C(N)=O)c1N (configuration not stated)	> 50 µM (inactive)
CCOC(=O)c1[nH]c(C)c(C(=O)N(C)Cc2ccccc2)c1C	> 50 µM (inactive)
CCn1c(=O)cc(N2CCCCC2)[nH]c1=O	> 50 µM (inactive)
N#Cc1c(N)nc2c(c1-c1ccccc1)CCC2	14.3 µM
Cc1cc(C(=O)N/N=C2\CC(=O)CC(C)(C)C2)n[nH]1	> 50 µM (inactive)
Cc1ccc(C2NC(=O)c3c(sc(C)c3C)N2)c(O)c1 (configuration not stated)	> 50 µM (inactive)
CCN(CC)Cc1c(CC(C)C)oc(C)c1C(=O)O	> 50 µM (inactive)
COc1cc(/C=C(\C#N)C(=O)Nc2cccc3ncccc23)cc(OC)c1OC	> 50 µM (inactive)
CNC(=O)c1cc2c(ccc3ccccc32)oc1=N	5.26 µM
O=S(=O)(Cc1ccc(Cl)cc1)Nc1ccc2c(c1)OCO2	> 50 µM (inactive)
CCC(=O)Nc1c(S(=O)(=O)c2ccccc2)c2nc3ccccc3nc2n1Cc1ccccc1	20.9 µM
O=C(c1ccc(F)cc1)c1cc2ccc(O)cc2oc1=O	11.4 µM
O=C1NC(=O)N(Cc2ccccc2)C(=O)/C1=C\N1CCCc2ccccc21	> 50 µM (inactive)
Cc1nc2ccc(NC(=O)c3nn(CC(C)C)c(=O)c4ccccc34)cc2s1	> 50 µM (inactive)
COc1ccc(C(=O)Nc2sc3c(c2C#N)CCN(C(C)=O)C3)cc1	> 50 µM (inactive)
